# Results published in patent publication US20230109010A1, “PESTICIDE COMPOSITIONS WITH SUPRAMOLECULAR STRUCTURES FOR AGRICULTURAL USE” (BPS JUST ENERGY TECHNOLOGY, LLC, priority 2020, published 2023).
# What was measured:
# Botrytis cinerea = experiment: In vitro fungal bioassay on amended PDA, fungal ring diameter; type: cell-based; details: fungicide at EC50 concentration, 24° C., 96 hours
# Fusarium graminearum = type: cell-based; details: fungicide at EC50 concentration, PDA, 24° C., 96 hours
# Macrophomina phaseoli = experiment: In vitro fungal bioassay on amended PDA, fungal ring diameter; type: cell-based; details: fungicide at EC50 concentration, 24° C., 96 hours
# Pythium irregulare = experiment: as above; type: cell-based; details: fungicide at EC50 concentration, 24° C., 96 hours
# Sclerotinia sclerotiorum = experiment: as above; type: cell-based; details: fungicide at EC50 concentration, 24° C., 96 hours
# Rhizoctonia solani = experiment: as above; type: cell-based; details: fungicide at EC50 concentration, 24° C., 96 hours
# Fall armyworms = experiment: Insecticide leaf-dip bioassay on spinach squares, percent killed; type: in vivo, Spodoptera frugiperda
# Description: In this example, a ten replicated in vitro bioassay was conducted to understand the insecticide compatibilities of insecticide compositions with supramolecular host or guest chemistries. This example utilized a common insecticide, chlorantraniliprole at various application rates to understand the impact of supramolecular chemistry. Chlorantraniliprole is an insecticide active ingredient found in Coragen® insecticide, Ferterra® insecticide, and Acelepryn G® insecticide among others. Chlorantraniliprole, also known as Rynaxypyr, is an insecticide belonging to the chemical group, diamides, with a group 28 mode of action. Chlorantraniliprole opens muscular calcium channels (particularly the ryanodine receptor), rapidly causing paralysis and ultimately death of sensitive species, those being of the order of Lepidoptera and some other Coleoptera, Diptera, and Isoptera species.
# A 2x factorial was used for ppm dosages to test with those being 0.005, 0.01, 0.02, 0.04, and 0.08 ppm of chlorantraniliprole. The chlorantraniliprole was sourced from Millipore Sigma, CAS Number: 500008-45-7, with the reference material being the material used for this example. The treatments were 0.005, 0.01, 0.02, 0.04, and 0.08 ppm of chlorantraniliprole as control. The supramolcular compositions were screened at the same rates of chlorantraniliprole with the addition of 23% SymMAX™ supramolecular host chemistry to the active (i.e. 0.08 ppm of active would have 0.0184 ppm 23% SymMAX™ supramolecular host chemistry). SymMAX™ supramolecular host chemistry was sourced from Shotwell Hydrogenics. The insects used for this experiment were Fall armyworms, Spodoptera frugiperda, sourced from Benzon Research of Pennsylvania. Eggs were reared to first instar at 23° C. with a noctuid diet also prepared by Benzon research.
# Treatment solutions were prepared by making a stock solution of chlorantraniliprole by dissolving 0.0056 grams of chlorantraniliprole into 49.98 grams of acetone to make a 112 ppm stock solution. The stock solution was diluted to 11 ppm to make the appropriate treatment rates and to make the supramolecular compositions. The 11 ppm stock solution of the control and composition was diluted to 0.005, 0.01, 0.02, 0.04, and 0.08 ppm by diluting to a 100 gram solution of water for the leaf dipping.
# Treatments were applied to 1-inch squares of spinach that were dipped in each treatment solution and allowed to dry at room temperature at 20° C. for 2 hours before 5 to 6 fall armyworms were added to a petri dish with filter paper and 1.7 mL of water. Each petri dish represents one repetition of the application and the number of live worms added were recorded on each petri dish and counted at 24 and 48 hours.
structure (smiles),measurement,setting,value
"CO/C=C(/C(=O)OC)c1ccccc1Oc1cc(Oc2ccccc2C#N)ncn1 [Azoxystrobin, azoxystrobin]",FUNGAL RING DIAMETER (mm) FOR AZOXYSTROBIN,Botrytis cinerea,52.5 mm
same,FUNGAL RING DIAMETER (mm) FOR AZOXYSTROBIN,Fusarium graminearum,21.1 mm
same,FUNGAL RING DIAMETER (mm) FOR AZOXYSTROBIN,Macrophomina phaseoli,40.2 mm
same,FUNGAL RING DIAMETER (mm) FOR AZOXYSTROBIN,Pythium irregulare,44.3 mm
same,FUNGAL RING DIAMETER (mm) FOR AZOXYSTROBIN,Sclerotinia sclerotiorum,43.1 mm
same,FUNGAL RING DIAMETER (mm) FOR AZOXYSTROBIN,Rhizoctonia solani,48.4 mm
"CNC(=O)c1cc(Cl)cc(C)c1NC(=O)c1cc(Br)nn1-c1ncccc1Cl [Chlorantraniliprole Control, chlorantraniliprole]",PERCENT KILLED AT 24 HOURS,Fall armyworms; 0.005 ppm chlorantraniliprole,26.0%
same,PERCENT KILLED AT 48 HOURS,Fall armyworms; 0.005 ppm chlorantraniliprole,36.0%
same,PERCENT KILLED AT 24 HOURS,Fall armyworms; 0.01 ppm chlorantraniliprole,15.3%
same,PERCENT KILLED AT 48 HOURS,Fall armyworms; 0.01 ppm chlorantraniliprole,57.0%
same,PERCENT KILLED AT 24 HOURS,Fall armyworms; 0.02 ppm chlorantraniliprole,15.3%
same,PERCENT KILLED AT 48 HOURS,Fall armyworms; 0.02 ppm chlorantraniliprole,28.9%
same,PERCENT KILLED AT 24 HOURS,Fall armyworms; 0.04 ppm chlorantraniliprole,37.7%
same,PERCENT KILLED AT 48 HOURS,Fall armyworms; 0.04 ppm chlorantraniliprole,81.4%
same,PERCENT KILLED AT 24 HOURS,Fall armyworms; 0.08 ppm chlorantraniliprole,19.6%
same,PERCENT KILLED AT 48 HOURS,Fall armyworms; 0.08 ppm chlorantraniliprole,91.7%
"FC(F)C(F)(F)OCC(Cn1cncn1)c1ccc(Cl)cc1Cl (stereo not shown) [Tetraconazole, tetraconazole]",FUNGAL RING DIAMETER (mm) FOR FLUXAPYROXAD,Botrytis cinerea,49.988 mm
same,FUNGAL RING DIAMETER (mm) FOR TETRACONAZOLE,Botrytis cinerea,65.2 mm
same,FUNGAL RING DIAMETER (mm) FOR FLUXAPYROXAD,Fusarium graminearum,40.783 mm
same,FUNGAL RING DIAMETER (mm) FOR TETRACONAZOLE,Fusarium graminearum,30.766 mm
same,FUNGAL RING DIAMETER (mm) FOR FLUXAPYROXAD,Macrophomina phaseoli,66.979 mm
same,FUNGAL RING DIAMETER (mm) FOR TETRACONAZOLE,Macrophomina phaseoli,61.298 mm
same,FUNGAL RING DIAMETER (mm) FOR FLUXAPYROXAD,Pythium irregulare,89 mm
same,FUNGAL RING DIAMETER (mm) FOR TETRACONAZOLE,Pythium irregulare,85.93 mm
same,FUNGAL RING DIAMETER (mm) FOR FLUXAPYROXAD,Sclerotinia sclerotiorum,65.41 mm
same,FUNGAL RING DIAMETER (mm) FOR TETRACONAZOLE,Sclerotinia sclerotiorum,56.96 mm
same,FUNGAL RING DIAMETER (mm) FOR FLUXAPYROXAD,Rhizoctonia solani,54.377 mm
same,FUNGAL RING DIAMETER (mm) FOR TETRACONAZOLE,Rhizoctonia solani,74.33 mm
